Test results reported in ChEMBL document CHEMBL3507680, “University of Dundee, Gates Library screen for HepG2 cell viability”.

Experiment: Human HepG2 cell viability assay in 384 well format
Assay type: toxicity, cell-based
Parameters: dose 125 nL, time 70.5 hour; cytotoxicity at 70.5 h: concentration not given beside the values
Details: HepG2 cells, read-out: Inhibition

Structure (SMILES) | cytotoxicity at 70.5 h
CCC(CO)N(Cc1cccnc1)C(=O)c1ccoc1C (configuration not stated) | 0.679%
CC(C)(C#N)CCCS(=O)(=O)c1nccn1-c1cccc(F)c1 | -10.9%
O=C(CC1CCc2ccccc21)NCCSc1ccccn1 (configuration not stated) | 11.8%
CN(C)C(=O)[C@@H]1CCO[C@@H]2CCN(c3ncccn3)C[C@@H]21 | -2.08%
COCCCNC(=O)CCn1ncc2c(Cl)cccc21 | -7.64%
CC(C)CC(NS(C)(=O)=O)C(=O)N(C)Cc1nnc2n1CCC2 (configuration not stated) | -8.38%
O=C(Nc1ccc(OCc2cccc(F)c2)c(F)c1)C1COCCO1 (configuration not stated) | -3.19%
CN(Cc1ccco1)[C@@H]1CN(Cc2ccc(F)cc2)[C@@H]2CCCO[C@H]12 | 6.23%
O=C(Nc1cccc(OCc2cccc(F)c2)c1)C1COCCO1 (configuration not stated) | -0.586%
CCc1nnsc1C(=O)N1CCCC1c1c(C)nn(C)c1OC (configuration not stated) | 13.9%
CCn1cc(CN2CCCN(C(=O)C3=NN(C)C(=O)CC3)CC2)cn1 | 17.3%
COc1cccc(CN2CCN(c3noc(C(C)C)n3)CC2)c1F | 1.87%
O=C(C1CC1)N1CC2(CCNCC2)C1 | -8.48%
Cc1occc1CNC(=O)C1CCCN1C(=O)C1CC1 (configuration not stated) | -6.76%
COC(=O)C1(C)CCN(C(=O)NCCc2c(C)[nH]c3ccccc23)C1 (configuration not stated) | -3.86%
CCc1cccc(NC(=O)CCC(=O)N(C)Cc2nc(C)c[nH]2)c1 | 2.2%
Fc1cnc(N2CCCC3(CCN(c4ncccn4)C3)C2)nc1 (configuration not stated) | 13.7%
CCN(CC)Cc1ccc(C(=O)N2CCCC2Cn2cc(C)cn2)o1 (configuration not stated) | 2.44%
Cc1cccnc1CN1CCN(C(=O)[C@@]23CNC[C@@H]2CN(C)C3)CC1 | -8.36%
COc1ccc(C2CCCN2C(=O)NCCn2ccnc2)cc1 (configuration not stated) | 1.98%
O=C(c1cccc(F)c1)N1CCN2C[C@H](OCc3cccnc3)C[C@H]2C1 | -19%
COC(=O)c1ccc(N(C)C2CCC2)nn1 | -5.28%
Cc1nn(C2CCCC2)c2c1C(c1ccc3c(c1)OCO3)SCC(=O)N2 (configuration not stated) | -12.2%

Structure (SMILES) | cytotoxicity at 70.5 h
CNC(=O)N1CC[C@@H]2CN(Cc3cccc(Cl)c3)S(=O)(=O)[C@@H]2CC1 | -4.42%
CC(=O)N1N=C(c2ccccc2)OC1C(=O)NCCc1ccc(O)cc1 (configuration not stated) | -1.25%
COC(=O)CCCN(C)C(=O)c1cc(F)cc2[nH]cnc12 | 23.5%
Cn1cnc2nc3n(c2c1=O)CCC3 | 13.6%
CCN(c1ccc(C(=O)NCCCN2CCOCC2)cc1)S(=O)(=O)CC | 17.8%
Cc1cc(C(=O)N(C)CC(F)(F)C(F)(F)F)ccc1-n1cncn1 | 2.03%
Cc1c(CN2CCCC2(C)C(=O)NC2CCCC2)cnn1C (configuration not stated) | 5.02%
CCC1(c2ccc(NS(=O)(=O)c3cccs3)cc2)CCC(=O)NC1=O (configuration not stated) | -1.8%
Cc1nn(C)c(C)c1NC(=O)CN1CCCC1c1c(C)nn(C)c1C (configuration not stated) | -3.45%
Cc1n[nH]c(CCC(=O)N2CCOC(Cc3ccccc3)C2)c1C (configuration not stated) | -7.3%
CCC(C)CNc1ccc2oc(COC)nc2c1 (configuration not stated) | 42.8%
Cc1oc(C)c(C(=O)Nc2ccccn2)c1C | -10.7%
CC(CN1CCOCC1)NC(=O)NCc1ccoc1 (configuration not stated) | 4.07%
COCCC1(CO)CCCN(CCCc2ccccc2)C1 (configuration not stated) | 22.6%
CN(Cc1ccccc1)C(=O)CN1CCCC(Cn2cncn2)C1 (configuration not stated) | -7.31%
O=c1[nH]c(COc2cccc(F)c2)nc2c1CCNC2 | -17%
Cc1cccc(N2CCN(C(=O)NC(C)c3nncn3C)CC2)c1C (configuration not stated) | -3.82%
CN(C)CCCNC(=O)c1ccc(Cl)cc1Cl | -14.1%
O=C(c1ccc2[nH]cnc2c1)N1CCC(Oc2cccnc2)CC1 | -6.98%
CCOC(=O)N1[C@@H](c2ccco2)[C@@H](CO)C[C@]12CCCCNC2=O | -6.22%
CC1(C)CNC(=O)c2nc(CCN3CCOCC3)[nH]c2C1 | -7.47%
COc1c(CNCCNC(=O)c2cccc(C)c2)c(C)nn1C | 3.54%
COc1ccc(CN(C)C(=O)CCc2c(C)nc(C)[nH]c2=O)cc1OC | -7.96%

Structure (SMILES) | cytotoxicity at 70.5 h
COC(=O)C1CCN(C(=O)c2ccc(NS(C)(=O)=O)c(C)c2)CC1 | -9.09%
CCC(=O)N1CCC(c2nnc(Cn3cccn3)n2C2CC2)CC1 | -6.95%
Cc1ccc(S(N)(=O)=O)cc1C(=O)N1C[C@@H](CN(C)C)[C@@H](CO)C1 | -5.13%
COc1ccc(-c2cc(C3(O)CCOC(C)(C)C3)on2)cc1 (configuration not stated) | -11.5%
CCc1ccc(S(=O)(=O)Nc2cnc(N3CCOCC3)nc2)cc1 | -2.95%
CN1CC2(CCN(Cc3cc(Cl)ccc3OCC(=O)O)CC2)OC1=O | -8.9%
Cc1ccc(C(=O)N2CCC3(CC2)CN(c2ccccn2)CCO3)cc1 | -8.31%
O=C1CCCN1Cc1ncn2c1CN(C(=O)Cc1cccs1)CCC2 | -1.17%
O=C1CC(N(C(=O)c2csc(-c3ccccc3)n2)C2CC2)C(=O)N1 (configuration not stated) | 10.8%
COCCC(=O)N1CCC2(CCN(Cc3cccc(F)c3)C2)C1 (configuration not stated) | 24.8%
CCN1CCCC1CN(CCN(C)C)S(=O)(=O)c1cccc(C#N)c1 (configuration not stated) | -1.36%
CC(Cn1cccn1)NC(=O)NCc1cccs1 (configuration not stated) | -16.6%
Cc1cc(C)n(CC2CCCN2CC(=O)N(C)CCC#N)n1 (configuration not stated) | -8.11%
O=C1CC(c2ccsc2)c2snc(C(=O)O)c2N1 (configuration not stated) | 8.48%
CCn1cc(NS(=O)(=O)c2ccc(F)cc2)c(C(=O)NCC(C)C)n1 | -1.23%
Cc1nc(CN2CCCN(C(=O)COCC3CC3)CC2)cs1 | -2.01%
Cc1cnc(N2CCC3(CC2)CC(NC(=O)N(C)C)CO3)nc1 (configuration not stated) | -0.406%
CCc1cc(NCCCNS(C)(=O)=O)nc(-c2ccncc2)n1 | -9.08%
CCN(CC)C(=O)CN(C)C(=O)c1cccn1CCc1ccccc1 | -3.38%
CCn1c(CN2CCC(O)(C(=O)OC)CC2)nc2c(F)cccc21 | 31.2%
COCC(=O)N1CCC2(C1)c1ccccc1S(=O)(=O)N2CC1CC1 (configuration not stated) | -8.07%
c1csc(CN2C[C@@H](n3cccn3)[C@H]3OCCC[C@H]32)c1 | -3.02%
Cc1cc(C)cc(C(=O)Nc2ccc(CC3CC(=O)NC3=O)cc2)c1 (configuration not stated) | -1.28%

Structure (SMILES) | cytotoxicity at 70.5 h
CC(C)(CN1CCCC1)CN1CCC(Cn2cc(C3CC3)nn2)CC1 | -9.26%
NC(=O)c1ccc(NC(=O)Cn2cc(I)cn2)cc1 | -13.1%
O=C(NC[C@H]1OC[C@@H]2CCN(Cc3ccco3)C[C@@H]21)c1ccsc1 | -5.61%
COc1ncccc1NC(=O)c1cccc(C)n1 | -7.22%
CCN(Cc1ccc2c(c1)OCCO2)C(=O)NC(C)Cn1ccnc1 (configuration not stated) | -12.9%
COCC1CN(c2ncccn2)Cc2cnn(CC3CC3)c21 (configuration not stated) | -6.23%
CN(CC(=O)Nc1cc(-n2nnnc2C2CC2)ccc1F)C1CCC1 | -8.29%
CCN1CCOCC2(CCCN(C(=O)c3cccc(O)c3)C2)C1 (configuration not stated) | -6.13%
Cc1cccc(CCC(=O)NCC2CCCN2c2cccnn2)c1 (configuration not stated) | 5.29%
O=C([C@@H]1CCO[C@@H]2CCN(CCc3ccccc3)C[C@@H]21)N1CCCC1 | 15.3%
O=C(NC1CC1)C1CN(C(=O)c2cnccn2)C1 | -3.98%
COCCCN1Cc2cccc(NC(=O)c3ccccc3C)c2C1 | 15.2%
O=C(c1ccc(C2CCCO2)s1)N1Cc2ccccc2C1 (configuration not stated) | 0.527%
CSCC(CCO)NC(=O)Nc1ccc(Br)cc1 (configuration not stated) | -11.8%
O=C(Nc1cn[nH]c1)NC1CCN(c2ccccc2OC(F)F)C1 (configuration not stated) | 2.39%
COc1ccc(CN2C[C@@H]3OCCN(C)[C@@H]3C2)cc1 | -4.77%
NC(=O)c1ccc(OCC(=O)NS(=O)(=O)c2ccc3c(c2)CCC3)cc1 | -2.69%
COc1cc(CNC(c2ccccc2)c2nccn2C)cc(OC)c1 (configuration not stated) | 0.143%
O=S(=O)(Cc1ccccc1F)NC(CO)c1ccco1 (configuration not stated) | 18.8%
Cc1cc(C(N)=O)ccc1NC(=O)N1CCN(c2cccs2)CC1 | -12.4%
CCC(=O)N1CCC2(CC1)C(=O)N(Cc1cccnc1)CCN2C | -3.61%
Cc1nn(CCCNC(=O)C2CCN(S(C)(=O)=O)CC2)cc1Cl | 36.7%
O=S(=O)(c1cccs1)N1Cc2nc(COCC3CC3)oc2C1 | -5.06%

Structure (SMILES) | cytotoxicity at 70.5 h
CN(Cc1ccc(-n2cccn2)cc1)C(=O)CCC(F)(F)F | 26.9%
CCc1cnc(NCC2OCCc3ccccc32)nc1 (configuration not stated) | 3.74%
O=C(NCCCSC1CCCCC1)C1NCCc2[nH]cnc21 (configuration not stated) | -1.27%
CCS(=O)(=O)Nc1ccc2oc(C)c(C(C)=O)c2c1 | 28.3%
CN(C)Cc1nnc(C2CCCN(c3cc(C(F)(F)F)ccn3)C2)n1C (configuration not stated) | -11.1%
CCC(NC(=O)CC(F)(F)F)c1ccccc1OCC(=O)N1CCCC1 (configuration not stated) | -7.99%
CC(c1cn2ccsc2n1)N1Cc2ncccc2C1=O (configuration not stated) | -4.52%
COc1ccc(C(=O)N2CCC3(CCC(=O)N(C(C)C)C3)CC2)cc1C | -6.63%
CN1C(=O)[C@H]2CC[C@@H]1CN(C(=O)c1nnc3n1CCCCC3)C2 | -6.73%
CCCC(=O)N1CCC([C@@H]2C[C@H](C(F)(F)F)n3nc(C)cc3N2)CC1 | -6.51%
Cn1cccc1C(=O)NC[C@H]1C[C@@H]2CN(C(=O)c3ccno3)C[C@H]2O1 | -9.62%
c1cnc(-c2nc(CN3CCCC3Cn3cncn3)cs2)nc1 (configuration not stated) | -5.35%
CCN1CC2(CCC1=O)CCN(Cc1nncn1C)CC2 | -5.87%
CCN1CC[C@]2(CN(Cc3nccs3)C[C@H]2c2ccccc2)C1=O | -0.124%
O=C(c1ccc[nH]1)N1CCc2onc(COc3cccnc3)c2C1 | -4.03%
c1cncc(Cc2nnc3n2CCN(CC2CCCNC2)CC3)c1 (configuration not stated) | -14%
Cc1cc(C(=O)NCc2cccs2)c2c(C3CCCN3)noc2n1 (configuration not stated) | -6.49%
COC(=O)N1CCCCC1C(=O)N1CCC(c2ccncc2)CC1 (configuration not stated) | -3.09%
Cc1ccc(CNCc2cccc3cccnc23)c(OC2CCOC2)c1 (configuration not stated) | 12.2%
COc1ccc(C(N)=O)cc1NCc1nc(-c2cccs2)oc1C | -102%
